{"source": "PubChem BioAssay AID248", "about": "(DTP/NCI, 2004)", "tested_on": "L1210 leukemia ip in BDF1 mice, survival T/C", "test": "NCI In Vivo Anticancer Drug Screen. Data for tumor model L1210 Leukemia (intraperitoneal) in B6D2F1 (BDF1) mice", "settings": "endpoint: mean survival time, higher = longer survival", "how_it_was_run": "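Tumor was transplanted into mice, which were then dosed with test compound or vehicle alone. Survival was recorded for each group, and the treated figure was expressed relative to the control figure.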", "key": {"[1]": {"settings": "dose: 200.0 mg/kg/injection, schedule: Q01DX001 (ip), vehicle: saline"}, "[2]": {"settings": "dose: 100.0 mg/kg/injection, schedule: Q04DX003 (ip), vehicle: Klucel (hydroxypropylcellulose) (HPC)"}, "[3]": {"settings": "dose: 200.0 mg/kg/injection, schedule: Q04DX003 (ip), vehicle: Klucel (hydroxypropylcellulose) (HPC)"}, "[4]": {"settings": "dose: 400.0 mg/kg/injection, schedule: Q04DX003 (ip), vehicle: Klucel (hydroxypropylcellulose) (HPC)"}}, "note": "Where “and” joins values, the source holds several entries; their conditions need not be identical. Identical values can stand only once. Toxic doses and inconclusive results are not listed."}
{"smiles": "Cn1cccc(C#N)c1=O", "note": "(tested in a mixture with another compound)", "values": [{"measurement": "T/C", "setting": "dose: 100.0 mg/kg/injection, schedule: Q01DX001 (ip), vehicle: saline", "result": "103 % of control and 113 % of control"}, {"measurement": "T/C", "setting": "dose: 100.0 mg/kg/injection, schedule: Q04DX002 (ip), vehicle: saline", "result": "97 % of control and 110 % of control"}, {"measurement": "T/C", "setting": "dose: 100.0 mg/kg/injection, schedule: Q04DX003 (ip), vehicle: saline", "result": "97 % of control"}, {"measurement": "T/C", "setting": "[1]", "result": "106 % of control and 108 % of control"}, {"measurement": "T/C", "setting": "dose: 200.0 mg/kg/injection, schedule: Q04DX002 (ip), vehicle: saline", "result": "98 % of control and 113 % of control"}, {"measurement": "T/C", "setting": "dose: 200.0 mg/kg/injection, schedule: Q04DX003 (ip), vehicle: saline", "result": "103 % of control and 106 % of control"}, {"measurement": "T/C", "setting": "dose: 400.0 mg/kg/injection, schedule: Q01DX001 (ip), vehicle: saline", "result": "103 % of control and 105 % of control"}, {"measurement": "T/C", "setting": "dose: 400.0 mg/kg/injection, schedule: Q04DX002 (ip), vehicle: saline", "result": "100 % of control and 92 % of control"}, {"measurement": "T/C", "setting": "dose: 400.0 mg/kg/injection, schedule: Q04DX003 (ip), vehicle: saline", "result": "106 % of control and 91 % of control"}]}
{"smiles": "CC(=O)NCC(C)OC(C)=O", "note": "(centres undefined)", "values": [{"measurement": "T/C", "setting": "dose: 100.0 mg/kg/injection, schedule: Q01DX009 (ip), vehicle: saline", "result": "104 % of control"}, {"measurement": "T/C", "setting": "dose: 200.0 mg/kg/injection, schedule: Q01DX009 (ip), vehicle: saline", "result": "97 % of control"}, {"measurement": "T/C", "setting": "dose: 400.0 mg/kg/injection, schedule: Q01DX009 (ip), vehicle: saline", "result": "97 % of control"}]}
{"smiles": "O=C(CC1(O)C(=O)Nc2ccccc21)CC1(O)C(=O)Nc2ccccc21", "note": "(centres undefined)", "values": [{"measurement": "T/C", "setting": "dose: 100.0 mg/kg/injection, schedule: Q01DX007 (ip), vehicle: Klucel (hydroxypropylcellulose) (HPC)", "result": "110 % of control"}, {"measurement": "T/C", "setting": "[2]", "result": "100 % of control"}, {"measurement": "T/C", "setting": "dose: 200.0 mg/kg/injection, schedule: Q01DX007 (ip), vehicle: Klucel (hydroxypropylcellulose) (HPC)", "result": "118 % of control"}, {"measurement": "T/C", "setting": "[3]", "result": "97 % of control"}, {"measurement": "T/C", "setting": "dose: 400.0 mg/kg/injection, schedule: Q01DX007 (ip), vehicle: Klucel (hydroxypropylcellulose) (HPC)", "result": "103 % of control"}, {"measurement": "T/C", "setting": "[4]", "result": "92 % of control"}]}
{"smiles": "NC(Cc1c[nH]c2cc(N(CCCl)CCCl)ccc12)C(=O)O", "note": "(centres undefined)", "values": [{"measurement": "T/C", "setting": "dose: 0.25 mg/kg/injection, schedule: Q01DX Z (ip), vehicle: other", "result": "171 % of control"}, {"measurement": "T/C", "setting": "dose: 0.5 mg/kg/injection, schedule: Q01DX Z (ip), vehicle: other", "result": "188 % of control"}, {"measurement": "T/C", "setting": "dose: 125.0 micrograms/kg/injection, schedule: Q01DX009 (ip), vehicle: carboxymethylcellulose (CMC)", "result": "118 % of control"}, {"measurement": "T/C", "setting": "dose: 500.0 micrograms/kg/injection, schedule: Q01DX009 (ip), vehicle: carboxymethylcellulose (CMC)", "result": "167 % of control"}, {"measurement": "T/C", "setting": "dose: 1000.0 micrograms/kg/injection, schedule: Q01DX009 (ip), vehicle: carboxymethylcellulose (CMC)", "result": "229 % of control"}]}
{"smiles": "CCCN(CCC)N=Nc1ccccc1-c1nc(N)nc(N)n1", "values": [{"measurement": "T/C", "setting": "[2]", "result": "101 % of control"}, {"measurement": "T/C", "setting": "[3]", "result": "119 % of control"}, {"measurement": "T/C", "setting": "[4]", "result": "109 % of control"}]}
{"smiles": "COc1ccc(C2=CC(c3ccccc3)C(c3ccccc3)C(=O)N2)cc1", "note": "(centres undefined)", "values": [{"measurement": "T/C", "setting": "dose: 6.25 mg/kg/injection, schedule: Q04DX002 (ip), vehicle: saline with Tween-80", "result": "100 % of control"}, {"measurement": "T/C", "setting": "dose: 12.5 mg/kg/injection, schedule: Q04DX002 (ip), vehicle: saline with Tween-80", "result": "100 % of control"}, {"measurement": "T/C", "setting": "dose: 25.0 mg/kg/injection, schedule: Q04DX002 (ip), vehicle: saline with Tween-80", "result": "92 % of control"}]}
{"smiles": "c1ccc(-c2nc3cnccc3o2)cc1", "values": [{"measurement": "T/C", "setting": "dose: 12.5 mg/kg/injection, schedule: Q01DX009 (ip), vehicle: Klucel (hydroxypropylcellulose) (HPC)", "result": "92 % of control"}, {"measurement": "T/C", "setting": "dose: 25.0 mg/kg/injection, schedule: Q01DX009 (ip), vehicle: Klucel (hydroxypropylcellulose) (HPC)", "result": "94 % of control"}, {"measurement": "T/C", "setting": "dose: 50.0 mg/kg/injection, schedule: Q01DX009 (ip), vehicle: Klucel (hydroxypropylcellulose) (HPC)", "result": "94 % of control"}, {"measurement": "T/C", "setting": "[2]", "result": "106 % of control"}, {"measurement": "T/C", "setting": "[3]", "result": "99 % of control"}, {"measurement": "T/C", "setting": "[4]", "result": "94 % of control"}]}
{"smiles": "CCC(CCc1ccc(OC)c(OC)c1)C(=O)O", "note": "(centres undefined)", "values": [{"measurement": "T/C", "setting": "dose: 100.0 mg/kg/injection, schedule: Q01DX001 (ip), vehicle: saline with Tween-80", "result": "93 % of control"}, {"measurement": "T/C", "setting": "dose: 200.0 mg/kg/injection, schedule: Q01DX001 (ip), vehicle: saline with Tween-80", "result": "98 % of control"}, {"measurement": "T/C", "setting": "dose: 400.0 mg/kg/injection, schedule: Q01DX001 (ip), vehicle: saline with Tween-80", "result": "98 % of control"}]}
{"smiles": "COc1ccc(-n2cnc3c(=O)[nH]c(N)nc32)cc1", "values": [{"measurement": "T/C", "setting": "[1]", "result": "92 % of control"}]}
